Values joined by “and” are separate entries in the source; they are usually repeats but may differ in a detail not shown here. Identical values can stand only once. Like-named read-outs stand apart in the source and are kept apart here.

Results on 23 molecules are retold here after patent publication US20230064983A1 (priority 2020, published 2023).

One experiment has as its target T1, Bub1 (Homo sapiens, UniProt O43683).
T1 construct: catalytic domain of human Bub1 (amino acids 704-1085); His6 (N); made in house; host or cells: insect cells (Hi5)
In words: Bub1 high ATP kinase assay (TR-FRET). It is filed as biochemical. To be noted: 2 mM ATP, Table 3. Summed up:
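Enzyme was His6-tagged human Bub1 catalytic domain (aa 704-1085) from Hi5 insect cells, typically about 200 ng/ml, with a biotinylated peptide substrate at high ATP. Reaction ran 60 min at 22 °C, then was stopped with EDTA. Phosphopeptide was detected by TR-FRET (anti-phosphoserine antibody, Eu-labelled anti-mouse IgG, streptavidin-XL665), read as the 665/620 nm emission ratio.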
In general terms: Time-resolved FRET reads energy transfer from a long-lived donor to a nearby acceptor.

Experiment [1] deals with T2, EGFR with insertion SVD between D770 and N771 (mutEGFR D770_N771insSVD) (Homo sapiens, UniProt P00533, DUP768-770).
T2 construct: amino acids R669 to A1210; made in house; host or cells: Sf9 insect cells (baculovirus)
T2 sequence (P00533 other isoform, or with tags, fused parts or gaps DUP768-770): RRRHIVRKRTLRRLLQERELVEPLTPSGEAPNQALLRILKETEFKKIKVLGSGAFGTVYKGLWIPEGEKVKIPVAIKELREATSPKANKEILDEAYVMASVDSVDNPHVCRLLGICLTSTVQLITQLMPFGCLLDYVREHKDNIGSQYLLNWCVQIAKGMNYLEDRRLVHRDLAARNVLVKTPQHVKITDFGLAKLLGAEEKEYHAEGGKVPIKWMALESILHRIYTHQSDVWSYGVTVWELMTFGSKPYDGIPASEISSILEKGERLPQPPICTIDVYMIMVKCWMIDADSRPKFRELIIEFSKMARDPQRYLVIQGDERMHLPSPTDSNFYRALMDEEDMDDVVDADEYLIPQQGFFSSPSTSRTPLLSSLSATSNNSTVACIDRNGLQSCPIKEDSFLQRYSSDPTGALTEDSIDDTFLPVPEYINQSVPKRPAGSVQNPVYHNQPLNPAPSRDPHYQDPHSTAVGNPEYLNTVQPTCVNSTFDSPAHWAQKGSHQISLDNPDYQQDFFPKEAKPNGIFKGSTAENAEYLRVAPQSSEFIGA
Put plainly: Exon20-Mutant-EGFR(D770_N771insSVD) kinase assay (TR-FRET). It is filed as biochemical. To be noted: 2 mM ATP, Table 2.

For experiment [2], the target named is Ba/F3-EGFR-D770_N771insSVD cells (Homo sapiens, UniProt P00533, DUP768-770, cells depend on it). In words: Ba/F3 cell survival assay, EGFR D770_N771insSVD. It is filed as cell-based. To be noted: Cell Titer-Glo, 48 h, without IL-3; Table 4; read-out: BA/F3 (insSVD) IC50. On the technique in general: In ATP-based viability assays light output follows the ATP content of the culture.
Chain of Ba/F3-EGFR-D770_N771insSVD cells (P00533 with tags, fused parts or gaps DUP768-770): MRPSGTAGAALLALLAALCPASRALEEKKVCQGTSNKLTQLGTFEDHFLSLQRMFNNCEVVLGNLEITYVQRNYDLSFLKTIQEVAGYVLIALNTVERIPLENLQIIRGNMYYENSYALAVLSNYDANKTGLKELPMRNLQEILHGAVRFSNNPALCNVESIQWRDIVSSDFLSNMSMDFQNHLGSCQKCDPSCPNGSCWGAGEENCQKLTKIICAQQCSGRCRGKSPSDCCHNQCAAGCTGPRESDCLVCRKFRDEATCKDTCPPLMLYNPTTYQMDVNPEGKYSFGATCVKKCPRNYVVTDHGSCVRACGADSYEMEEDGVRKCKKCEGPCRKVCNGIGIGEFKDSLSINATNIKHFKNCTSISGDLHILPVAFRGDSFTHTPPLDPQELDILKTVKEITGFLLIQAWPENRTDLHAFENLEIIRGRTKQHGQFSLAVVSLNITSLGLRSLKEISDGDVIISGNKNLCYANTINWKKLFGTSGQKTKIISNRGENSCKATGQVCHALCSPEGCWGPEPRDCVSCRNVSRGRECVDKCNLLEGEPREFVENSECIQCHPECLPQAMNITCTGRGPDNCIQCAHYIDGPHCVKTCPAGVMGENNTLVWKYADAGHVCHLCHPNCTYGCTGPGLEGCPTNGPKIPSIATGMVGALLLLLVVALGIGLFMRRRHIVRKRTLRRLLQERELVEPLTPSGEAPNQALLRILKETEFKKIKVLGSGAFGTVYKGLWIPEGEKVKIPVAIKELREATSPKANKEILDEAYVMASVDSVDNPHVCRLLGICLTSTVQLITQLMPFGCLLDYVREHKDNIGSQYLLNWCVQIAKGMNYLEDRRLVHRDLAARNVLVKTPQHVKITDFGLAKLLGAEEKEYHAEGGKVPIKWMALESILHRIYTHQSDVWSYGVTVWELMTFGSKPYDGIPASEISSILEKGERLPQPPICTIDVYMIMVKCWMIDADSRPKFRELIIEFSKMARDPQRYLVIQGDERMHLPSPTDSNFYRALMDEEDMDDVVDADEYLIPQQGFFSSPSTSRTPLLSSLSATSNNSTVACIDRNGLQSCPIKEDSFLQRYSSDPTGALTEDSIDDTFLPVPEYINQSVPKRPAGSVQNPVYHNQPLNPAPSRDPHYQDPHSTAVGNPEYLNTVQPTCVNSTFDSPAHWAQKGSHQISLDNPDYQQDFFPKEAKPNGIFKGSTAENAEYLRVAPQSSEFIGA

For the next experiment, the target named is Ba/F3-EGFR-WT cells (Homo sapiens, UniProt P00533). In words: Ba/F3 cell survival assay, wild type EGFR. It is filed as cell-based. To be noted: Cell Titer-Glo, 48 h, with 10 ng/mL EGF; Table 4; read-out: BA/F3 (wild type) IC50.
Chain of Ba/F3-EGFR-WT cells (P00533 whole entry, looked up, change not shown): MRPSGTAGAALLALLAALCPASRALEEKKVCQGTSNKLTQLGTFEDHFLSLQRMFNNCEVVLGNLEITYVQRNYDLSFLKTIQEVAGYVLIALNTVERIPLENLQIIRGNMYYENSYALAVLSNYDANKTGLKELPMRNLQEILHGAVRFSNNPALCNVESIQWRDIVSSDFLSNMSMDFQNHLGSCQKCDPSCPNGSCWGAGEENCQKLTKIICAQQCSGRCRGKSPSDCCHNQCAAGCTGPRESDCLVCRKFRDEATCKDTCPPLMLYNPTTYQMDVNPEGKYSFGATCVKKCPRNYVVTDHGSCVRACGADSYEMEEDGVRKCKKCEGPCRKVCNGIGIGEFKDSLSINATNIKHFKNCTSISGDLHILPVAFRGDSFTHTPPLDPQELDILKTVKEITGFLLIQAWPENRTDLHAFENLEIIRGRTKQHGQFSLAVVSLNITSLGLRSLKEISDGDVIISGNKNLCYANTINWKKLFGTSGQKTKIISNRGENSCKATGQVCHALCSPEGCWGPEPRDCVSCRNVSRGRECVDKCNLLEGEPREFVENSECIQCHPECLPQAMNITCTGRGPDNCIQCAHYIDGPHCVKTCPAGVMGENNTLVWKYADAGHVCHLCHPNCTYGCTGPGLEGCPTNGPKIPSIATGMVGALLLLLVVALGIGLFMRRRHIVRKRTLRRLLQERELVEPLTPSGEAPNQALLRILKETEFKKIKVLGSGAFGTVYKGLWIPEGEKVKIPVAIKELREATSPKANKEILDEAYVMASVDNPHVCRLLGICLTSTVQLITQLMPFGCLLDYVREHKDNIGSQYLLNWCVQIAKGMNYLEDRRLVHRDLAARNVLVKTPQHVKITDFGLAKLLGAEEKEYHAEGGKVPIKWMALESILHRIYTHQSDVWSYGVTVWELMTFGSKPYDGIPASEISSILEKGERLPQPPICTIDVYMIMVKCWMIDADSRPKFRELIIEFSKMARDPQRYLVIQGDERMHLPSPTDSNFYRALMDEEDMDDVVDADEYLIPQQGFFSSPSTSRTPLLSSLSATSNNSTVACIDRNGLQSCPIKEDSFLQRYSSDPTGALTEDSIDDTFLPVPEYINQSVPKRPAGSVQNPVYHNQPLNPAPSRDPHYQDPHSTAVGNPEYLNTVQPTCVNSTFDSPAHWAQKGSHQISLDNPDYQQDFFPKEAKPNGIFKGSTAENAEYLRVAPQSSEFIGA
Where [3] appears, read: Bub1 high ATP (2 mM) IC50, TR-FRET.
Where [4] appears, read: read-out: Bub1 high ATP (2 mM) IC50, TR-FRET.

T1 sequence (O43683 704-1085): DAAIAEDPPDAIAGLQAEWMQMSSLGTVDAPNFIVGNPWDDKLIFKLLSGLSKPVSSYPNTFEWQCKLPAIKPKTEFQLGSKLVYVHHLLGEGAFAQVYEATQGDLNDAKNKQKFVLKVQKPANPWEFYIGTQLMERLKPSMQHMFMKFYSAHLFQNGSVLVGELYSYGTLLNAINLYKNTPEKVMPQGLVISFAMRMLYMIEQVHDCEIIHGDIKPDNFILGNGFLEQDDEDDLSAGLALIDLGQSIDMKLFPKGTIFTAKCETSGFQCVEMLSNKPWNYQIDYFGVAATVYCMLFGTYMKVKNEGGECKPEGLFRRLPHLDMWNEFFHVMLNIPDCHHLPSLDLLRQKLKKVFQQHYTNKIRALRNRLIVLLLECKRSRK

Regarding `Cc1c(Cl)cccc1Nc1c(-c2ccncc2OCC2COCCO2)[nH]c2c1C(=O)NCC2C` (single isomer, unassigned) [Example 69, 3-(3-chloro-2-methyl-anilino)-2-[3-(1,4-dioxan-2-ylmethoxy)-4-pyridyl]-7-methyl-1,5,6,7-tetrahydropyrrolo[3,2-c]pyridin-4-one], on Bub1 (setting [3]), the IC50 (in general, the concentration that gives 50% inhibition) worked out at 1730 nM. The “mutEGFR (D770_N771insSVD) kinase assay IC50” value (shortened to “mutEGFR”) in experiment [1] was 0.269 nM. Besides, the GI50 stood at 72.4 nM in experiment [2] and 2180 nM on Ba/F3-EGFR-WT cells.
`Cc1c(Cl)cccc1Nc1c(-c2ccncc2OCC2COCCO2)[nH]c2c1C(=O)NCC2C` (single isomer, unassigned) [Example 70, 3-(3-chloro-2-methyl-anilino)-2-[3-(1,4-dioxan-2-ylmethoxy)-4-pyridyl]-7-methyl-1,5,6,7-tetrahydropyrrolo[3,2-c]pyridin-4-one]: it took 1550 nM to reach half-maximal inhibition at Bub1 (setting [3]) (IC50). Besides, in experiment [1], the “mutEGFR” value worked out at 0.255 nM. For the same molecule, the GI50 in experiment [2] turned out to be 224 nM; on Ba/F3-EGFR-WT cells it was 4630 nM.
For the molecule `COc1c(Cl)cccc1Nc1c(-c2ccncc2OCC2OCCC2(F)F)[nH]c2c1C(=O)N[C@H](C)C2` (single isomer, unassigned) [Example 72], the half-inhibitory concentration (IC50) against Bub1 (setting [3]) came to 7070 nM. In addition, the “mutEGFR” value in experiment [1] stood at 0.151 nM. Moreover, the GI50 came out at 36.6 nM in experiment [2] and 628 nM on Ba/F3-EGFR-WT cells.
For `COc1c(Cl)cccc1Nc1c(-c2ccncc2OCC2OCCC2(F)F)[nH]c2c1C(=O)N[C@H](C)C2` (single isomer, unassigned) [Example 73] the same measures were 4060 nM, 0.179 nM, 55.3 nM and 643 nM.
For `COc1c(Cl)cccc1Nc1c(-c2ccncc2OCC2OCCCC2(F)F)[nH]c2c1C(=O)N[C@H](C)C2` (single isomer, unassigned) [Example 75] the same measures were 11100 nM, 0.104 nM, 18.2 nM and 264 nM.
Consider `COc1c(Cl)cccc1Nc1c(-c2ccncc2OCC2OCCCC2(F)F)[nH]c2c1C(=O)N[C@H](C)C2` (single isomer, unassigned) [Example 76], for which the IC50 on Bub1 (setting [3]) is more than 5700 nM. In addition, the “mutEGFR” value in experiment [1] is 0.24 nM. Besides, the GI50 in experiment [2] came out at 177 nM; on Ba/F3-EGFR-WT cells, 2440 nM.
For `COc1c(Cl)cccc1Nc1c(-c2ccncc2OCC2COC(C)(C)CO2)[nH]c2c1C(=O)N[C@H](C)C2` (single isomer, unassigned) [Example 78] the same measures were more than 20000 nM, 0.26 nM, 20.7 nM and 488 nM.
With `COc1c(Cl)cccc1Nc1c(-c2ccncc2OCC2COC(C)(C)CO2)[nH]c2c1C(=O)N[C@H](C)C2` (single isomer, unassigned) [Example 79], the half-maximal inhibitory concentration (IC50) on Bub1 (setting [3]) is 17300 nM and > 20000 nM. Besides, in experiment [1], the “mutEGFR” value stood at 0.455 nM. In addition, the GI50 in experiment [2] was 151 nM; at Ba/F3-EGFR-WT cells, 1910 nM.
For `COc1c(Cl)cccc1Nc1c(-c2ccncc2OCC(C)OC)[nH]c2c1C(=O)N[C@H](C)C2` (single isomer, unassigned) [Example 81], the IC50 on Bub1 (setting [3]) is 4870 nM. For the same molecule, in experiment [1], the “mutEGFR” value was determined as 0.157 nM. Also, the results for the GI50 (in experiment [2]; at Ba/F3-EGFR-WT cells) were 44 nM and 583 nM, respectively.
For `COc1c(Cl)cccc1Nc1c(-c2ccncc2OCC(C)OC)[nH]c2c1C(=O)N[C@H](C)C2` (single isomer, unassigned) [Example 82] the same measures were 2710 nM, 0.143 nM, 13.9 nM and 248 nM.
On Bub1 (setting [3]), `COc1c(Cl)cccc1Nc1c(-c2ccncc2OCC2CCCCN2C)[nH]c2c1C(=O)N[C@H](C)C2` (single isomer, unassigned) [Example 84] showed an IC50 of more than 20000 nM. The “mutEGFR” value in experiment [1] turned out to be 0.657 nM. The GI50 in experiment [2] is 16.1 nM; on Ba/F3-EGFR-WT cells, 379 nM.
As to `COc1c(Cl)cccc1Nc1c(-c2ccncc2OCC2CCCCN2C)[nH]c2c1C(=O)N[C@H](C)C2` (single isomer, unassigned) [Example 85], the IC50 on Bub1 (setting [4]) was more than 20000 nM. Also, the “mutEGFR” value in experiment [1] was determined as 0.948 nM. Further, the GI50 in experiment [2] is 103 nM; at Ba/F3-EGFR-WT cells, 1170 nM.
`COc1c(Cl)cccc1Nc1c(-c2ccncc2OCCC2CCCCO2)[nH]c2c1C(=O)N[C@H](C)C2` (single isomer, unassigned) [Example 88] yielded an IC50 on Bub1 (setting [3]) of 978 nM. In addition, in experiment [1], the “mutEGFR” value was found to be 0.326 nM. For the same molecule, the GI50 in experiment [2] stood at 70.4 nM; at Ba/F3-EGFR-WT cells, 634 nM.
For the molecule `COc1c(Cl)cccc1Nc1c(-c2ccncc2OC[C@@H]2COCCN2C)[nH]c2c1C(=O)NCC2CCF` (single isomer, unassigned) [Example 89], the IC50 against Bub1 (setting [3]) was 15600 nM. In addition, the “mutEGFR” value in experiment [1] amounted to 0.278 nM. Also, the GI50 in experiment [2] came out at 18.2 nM; on Ba/F3-EGFR-WT cells, 425 nM.
On the same counts, the results for `COc1c(Cl)cccc1Nc1c(-c2ccncc2OC[C@@H]2COCCN2C)[nH]c2c1C(=O)NCC2CCF` (single isomer, unassigned) [Example 90] are 3880 nM, 0.499 nM, 83.8 nM and 1170 nM.
`COc1c(Cl)cccc1Nc1c(-c2ccncc2OCC2COC(C)(C)CO2)[nH]c2c1C(=O)NCC2C` (single isomer, unassigned) [Example 94, 3-(3-chloro-2-methoxy-anilino)-2-{3-[(5,5-dimethyl-1,4-dioxan-2-yl)methoxy]-4-pyridyl}-7-methyl-1,5,6,7-tetrahydropyrrolo[3,2-c]pyridin-4-one] registered an IC50 against Bub1 (setting [3]) of more than 20000 nM. Moreover, the “mutEGFR” value in experiment [1] was 0.631 nM. The GI50 in experiment [2] worked out at 66.6 nM; on Ba/F3-EGFR-WT cells, 1080 nM.
As for `COc1c(Cl)cccc1Nc1c(-c2ccncc2OCC2COC(C)(C)CO2)[nH]c2c1C(=O)NCC2C` (single isomer, unassigned) [Example 95, 3-(3-chloro-2-methoxy-anilino)-2-[3-[(5,5-dimethyl-1,4-dioxan-2-yl)methoxy]-4-pyridyl]-7-methyl-1,5,6,7-tetrahydropyrrolo[3,2-c]pyridin-4-one], on Bub1 (setting [4]), the IC50 was more than 20000 nM. Besides, the “mutEGFR” value in experiment [1] stood at 0.504 nM. In addition, the results for the GI50 (in experiment [2]; at Ba/F3-EGFR-WT cells) were 14.9 nM and 415 nM, respectively.
For `COc1c(Cl)cccc1Nc1c(-c2ccncc2OCC2COC(C)(C)CO2)[nH]c2c1C(=O)NCC2C` (single isomer, unassigned) [Example 96, 3-(3-chloro-2-methoxy-anilino)-2-[3-[(5,5-dimethyl-1,4-dioxan-2-yl)methoxy]-4-pyridyl]-7-methyl-1,5,6,7-tetrahydropyrrolo[3,2-c]pyridin-4-one], the IC50 on Bub1 (setting [4]) was more than 20000 nM. Besides, the “mutEGFR” value in experiment [1] stood at 0.985 nM. For the same molecule, the GI50 in experiment [2] worked out at 381 nM; at Ba/F3-EGFR-WT cells, 3430 nM.
Regarding `COc1c(Cl)cccc1Nc1c(-c2ccncc2OCC2COC(C)(C)CO2)[nH]c2c1C(=O)NCC2C` (single isomer, unassigned) [Example 97, 3-(3-chloro-2-methoxy-anilino)-2-[3-[(5,5-dimethyl-1,4-dioxan-2-yl)methoxy]-4-pyridyl]-7-methyl-1,5,6,7-tetrahydropyrrolo[3,2-c]pyridin-4-one], at Bub1 (setting [4]), the IC50 is more than 20000 nM. Further, the “mutEGFR” value in experiment [1] turned out to be 0.796 nM. In addition, the GI50 in experiment [2] is 32.1 nM; at Ba/F3-EGFR-WT cells it was 1130 nM.
Turning to `COc1c(Cl)cccc1Nc1c(-c2ccncc2OC[C@@H]2CCCO2)[nH]c2c1C(=O)NCC2CCC(F)(F)F` (single isomer, unassigned) [Example 98], half-maximal inhibition against Bub1 (setting [3]) (IC50) was put at 954 nM. Also, the “mutEGFR” value in experiment [1] worked out at 0.525 nM. The GI50 is 18.1 nM in experiment [2] and 444 nM at Ba/F3-EGFR-WT cells.
In turn, `COc1c(Cl)cccc1Nc1c(-c2ccncc2OC[C@@H]2CCCO2)[nH]c2c1C(=O)NCC2CCC(F)(F)F` (single isomer, unassigned) [Example 99] showed an IC50 at Bub1 (setting [3]) of more than 20000 nM. For the same molecule, the “mutEGFR” value in experiment [1] was determined as 0.72 nM. The GI50 amounted to 45.9 nM in experiment [2] and 846 nM at Ba/F3-EGFR-WT cells.
On the same counts, the results for `COc1c(Cl)cccc1Nc1c(-c2ccncc2OC[C@@H]2CCCO2)[nH]c2c1C(=O)NCC2CC=C(F)F` (single isomer, unassigned) [Example 100] are 3640 nM, 0.35 nM, 58.9 nM and 990 nM.
On Bub1 (setting [3]), `COc1c(Cl)cccc1Nc1c(-c2ccncc2OC[C@@H]2CCCO2)[nH]c2c1C(=O)NCC2CC=C(F)F` (single isomer, unassigned) [Example 101] returned an IC50 of more than 20000 nM. Besides, in experiment [1], the “mutEGFR” value stood at 0.553 nM. Also, the GI50 came to 42.1 nM in experiment [2] and 603 nM on Ba/F3-EGFR-WT cells.
